Patent publication US9051350B2, “Macrocyclic antiproliferation agents and methods of treatment” (University of Florida Research Foundation, Inc., priority 2008, dated 2015)
*1 amine or outer side, *2 acyl side, *3 side chain or, on linkers, in order; H or OH if unused. Where a SMILES comes first, the peptide text is derived from it. [ ]: non-standard residue; d: D form. ξ: configuration not given here. dβ3hAla(2R-Me) = C[C@@H](N[*:1])[C@@H](C)C(=O)[*:2]; X1 = CN(C(Cc1ccccc1)C1=N[C@H](C(=O)[*:2])CS1)[*:1]; X2 = CC[C@@H](N[*:1])C1=NC(C(=O)[*:2])CS1; d(aThr) = C[C@@H](O)[C@@H](N)C(=O)O; dNMeL = CN[C@H](CC(C)C)C(=O)O; ξPhLac = O=C(O)C(O)Cc1ccccc1; NMeV = CN[C@H](C(=O)O)C(C)C

How the values were obtained:
Assay in all cases: Cell viability assay (MTT), antiproliferative activity
Format in all cases: cell-based
neuroblastoma (IMR-32) = conditions: Homo sapiens, IMR-32 cells, 48 hours of incubation
Procedure: (§1) Cell culture medium was purchased from Invitrogen and fetal bovine serum (FBS) from Hyclone. Cells were propagated and maintained in DMEM medium (high glucose) supplemented with 10% FBS at 37° C. humidified air and 5% CO2.
(§2) HT29 colon adenocarcinoma cells were used for the bioassay-guided fractionation. To determine cell type selectivity, cells from four cancer cell lines (U2OS, HeLa, HT29 and IMR-32) were plated in 96-well format and incubated at 37° C. (5% CO2) for 24 hours. A dilution series of 1 in DMSO (1 μL) was then added, and after further 48 hours of incubation the cell viability was quantified using a standard assay kit based on MTT dye according to the manufacturer's instructions (Promega).

[1] = tested on: cervical carcinoma (HeLa); conditions: Homo sapiens, HeLa cells, 48 hours of incubation
Procedure: as §1, §2

[2] = tested on: human osteosarcoma (U2OS); conditions: U2OS cells, 48 hours of incubation
Procedure: as §1, §2

[3] = tested on: colorectal adenocarcinoma (HT29); conditions: Homo sapiens, HT-29, HT29 cells, 48 hours of incubation
Procedure: as §1, §2

CC[C@H]1NC(=O)[C@@H]2CSC(=N2)C(Cc2ccccc2)N(C)C(=O)[C@@H]2CCCN2C(=O)[C@H](C(C)C)N(C)C(=O)C(Cc2ccccc2)OC(=O)[C@H](C)[C@@H](C)NC(=O)[C@@H]([C@@H](C)O)NC(=O)[C@@H](CC(C)C)N(C)C(=O)C2CSC1=N2 (stereo partly drawn) [Compound 1, grassypeptolide] (cyclo([NMeV]P[X1][X2][dNMeL][d(aThr)][dβ3hAla(2R-Me)][ξPhLac]))
IC50 (neuroblastoma (IMR-32)): 4200 nM | IC50 [1]: 1000 nM | IC50 [2]: 2200 nM | IC50 [3]: 1500 nM
